Consider 2 molecules from patent publication US20230406865A1, “CRYSTAL FORM OF FREE BASE OF INHIBITOR CONTAINING BICYCLIC RING DERIVATIVE AND PREPARATION METHOD AND APPLICATION OF CRYSTAL FORM” (SHANGHAI HANSOH BIOMEDICAL CO., LTD., priority 2020, published 2023).

One data set has as its target T1, RET V804M (Homo sapiens, UniProt P07949, V804M).
T1 construct: purchased Thermofisher PV6223
As to the kind of experiment: HTRF kinase activity inhibition, RET V804M. The format is biochemical. To be noted: ATP at Km. From the text:
(§1) 2.2 Experimental Reagents: • RET enzyme was purchased from Carna Company, and the article number was 08-159; • RET M918T enzyme was purchased from Carna Company, and the article number was 08-508; • KIF5B-RET was purchased from SignalChem Company, the article number was R02-19FG-05; • CCDC6-RET was purchased from SignalChem Company, the article number was R02-19BG-05; • RET V804M enzyme was purchased from Thermofisher Company, and the article number was PV6223; • RET V804L enzyme was purchased from Thermofisher Company, and the article number was PV4397; • HTRF KinEASE-TK kit was purchased from Cisbio Company, and the article number was 62TK0PEC; • ATP was purchased from Thermofisher Company, and the article number was PV3227; • 384-well plate was purchased from PerkinElmer Company, and the article number was 6007290.
(§2) In this experiment, a homogeneous time-resolved fluorescence (HTRF) method was used for the detection of compounds on RET kinase activity.

In a further data set the target is T2, KIF5B-RET (Homo sapiens, UniProt P07949).
T2 construct: purchased SignalChem R02-19FG-05; the other entry of the earlier key: KIF5B (P33176, Kinesin-1 heavy chain)
T2 sequence (P07949 with tags, fused parts or gaps): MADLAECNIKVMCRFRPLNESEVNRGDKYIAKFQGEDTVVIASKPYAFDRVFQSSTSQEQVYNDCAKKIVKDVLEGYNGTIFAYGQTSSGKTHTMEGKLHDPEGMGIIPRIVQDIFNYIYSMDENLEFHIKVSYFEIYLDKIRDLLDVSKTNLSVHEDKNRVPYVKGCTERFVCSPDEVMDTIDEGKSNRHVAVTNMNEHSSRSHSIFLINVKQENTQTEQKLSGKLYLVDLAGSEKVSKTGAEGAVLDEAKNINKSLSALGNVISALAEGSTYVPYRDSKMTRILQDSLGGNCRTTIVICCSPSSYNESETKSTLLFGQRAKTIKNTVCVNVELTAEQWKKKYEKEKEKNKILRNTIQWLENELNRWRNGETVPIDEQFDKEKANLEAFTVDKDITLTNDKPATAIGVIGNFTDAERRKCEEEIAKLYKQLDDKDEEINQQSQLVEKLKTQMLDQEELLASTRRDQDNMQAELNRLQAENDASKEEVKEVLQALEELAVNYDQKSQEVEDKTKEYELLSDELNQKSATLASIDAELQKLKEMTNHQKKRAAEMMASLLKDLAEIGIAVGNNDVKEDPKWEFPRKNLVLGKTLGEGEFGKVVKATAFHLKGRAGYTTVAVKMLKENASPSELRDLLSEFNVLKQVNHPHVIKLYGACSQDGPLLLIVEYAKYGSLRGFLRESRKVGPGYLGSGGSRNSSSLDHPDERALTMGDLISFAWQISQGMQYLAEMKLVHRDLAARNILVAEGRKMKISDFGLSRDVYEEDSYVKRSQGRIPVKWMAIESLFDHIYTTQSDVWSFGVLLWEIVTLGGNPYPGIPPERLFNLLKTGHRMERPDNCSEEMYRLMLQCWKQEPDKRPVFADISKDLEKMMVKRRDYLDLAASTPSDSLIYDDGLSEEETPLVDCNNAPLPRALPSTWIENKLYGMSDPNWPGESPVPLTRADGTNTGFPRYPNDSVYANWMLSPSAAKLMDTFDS
In words: HTRF kinase activity inhibition, KIF5B-RET. In kind it is biochemical. To be noted: ATP at Km.
From the text: as §1, §2

The target of a further data set is T3, CCDC6-RET (Homo sapiens, UniProt P07949).
T3 construct: purchased SignalChem R02-19BG-05; the other entry of the earlier key: CCDC6 (Q16204, Coiled-coil domain-containing protein 6)
T3 sequence (P07949 with tags, fused parts or gaps): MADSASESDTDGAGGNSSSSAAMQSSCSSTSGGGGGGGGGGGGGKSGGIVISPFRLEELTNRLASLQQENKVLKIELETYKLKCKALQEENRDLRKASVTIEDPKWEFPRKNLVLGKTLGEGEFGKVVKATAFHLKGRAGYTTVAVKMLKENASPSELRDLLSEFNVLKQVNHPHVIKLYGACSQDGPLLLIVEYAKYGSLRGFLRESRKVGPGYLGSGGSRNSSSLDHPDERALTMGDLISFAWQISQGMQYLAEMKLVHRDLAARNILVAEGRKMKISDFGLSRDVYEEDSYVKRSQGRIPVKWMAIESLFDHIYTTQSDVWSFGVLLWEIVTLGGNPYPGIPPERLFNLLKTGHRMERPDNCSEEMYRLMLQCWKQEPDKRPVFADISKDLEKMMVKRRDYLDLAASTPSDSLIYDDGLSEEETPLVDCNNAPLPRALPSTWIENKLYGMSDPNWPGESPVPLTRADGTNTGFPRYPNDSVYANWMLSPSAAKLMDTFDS
As to the kind of experiment: HTRF kinase activity inhibition, CCDC6-RET. In kind it is biochemical. The conditions noted are these: ATP at Km.
From the text: as §1, §2
For orientation: Time-resolved FRET reads energy transfer from a long-lived donor to a nearby acceptor.

A further data set addresses T4, RET M918T (Homo sapiens, UniProt P07949, M918T).
T4 construct: purchased Carna 08-508
In words: HTRF kinase activity inhibition, RET M918T. The format is biochemical. The conditions noted are these: ATP at Km.
From the text: as §1, §2

A further data set has as its target T5, RET V804L (Homo sapiens, UniProt P07949, V804L).
T5 construct: purchased Thermofisher PV4397
In words: HTRF kinase activity inhibition, RET V804L. The format is biochemical. The conditions noted are these: ATP at Km.
From the text: as §1, §2

A short description of data set [1]: Hygroscopicity (DVS) of crystal form I. The format is physicochemical. The protocol: The crystal form I of the free base of the compound was placed in the saturated water vapor at the […] relative humidity to make the compound reach dynamic equilibrium with the water vapor, and the percentage of hygroscopic weight gain of the compound was calculated after equilibrium.

Data set [2] can be described thus: Solid stability of crystal form I (HPLC impurities). The conditions noted are these: 14 days. The format is physicochemical. The protocol: To investigate the physical and chemical stability of the compound under light 5000 lx, high temperature 60° C., high humidity 92.5% RH, high temperature and high humidity 50° C./75% RH conditions to provide a basis for the storage of the compound.
[…] 5000 lx, high temperature 60° C., high humidity 92.5% RH, high temperature and high humidity 50° C./75% RH, and the content was determined by HPLC with external standard method, and the changes of the related substances were calculated by the area normalization method for chromatographic peak.

Data set [3] can be described thus: Thermodynamic solubility in different media at 37° C. The format is physicochemical. The conditions noted are these: thermodynamic from solid, read-out: Solubility of crystal form I. The protocol: To compare the solubility of the crystal form I of the free base in pH 1-8 USP buffer, artificial simulated gastric fluid (FaSSGF), fasting artificial simulated intestinal fluid (FaSSIF), non-fasting artificial simulated intestinal fluid (FeSSIF) and pure water and other medium to provide a basis for the assessment of druggablitity.
About 1 mg of the crystal form I of the free base was mixed and suspended in different mediums for 4 hours.

[4] abbreviates: High temperature and high humidity/50° C./75% RH.

pIC50: −log10 of the molar value. ≈ marks a conversion by molar mass, not a printed value. Read-outs that look alike come from different tables or passages of the source.

T1 sequence (P07949 29-1114 V804M): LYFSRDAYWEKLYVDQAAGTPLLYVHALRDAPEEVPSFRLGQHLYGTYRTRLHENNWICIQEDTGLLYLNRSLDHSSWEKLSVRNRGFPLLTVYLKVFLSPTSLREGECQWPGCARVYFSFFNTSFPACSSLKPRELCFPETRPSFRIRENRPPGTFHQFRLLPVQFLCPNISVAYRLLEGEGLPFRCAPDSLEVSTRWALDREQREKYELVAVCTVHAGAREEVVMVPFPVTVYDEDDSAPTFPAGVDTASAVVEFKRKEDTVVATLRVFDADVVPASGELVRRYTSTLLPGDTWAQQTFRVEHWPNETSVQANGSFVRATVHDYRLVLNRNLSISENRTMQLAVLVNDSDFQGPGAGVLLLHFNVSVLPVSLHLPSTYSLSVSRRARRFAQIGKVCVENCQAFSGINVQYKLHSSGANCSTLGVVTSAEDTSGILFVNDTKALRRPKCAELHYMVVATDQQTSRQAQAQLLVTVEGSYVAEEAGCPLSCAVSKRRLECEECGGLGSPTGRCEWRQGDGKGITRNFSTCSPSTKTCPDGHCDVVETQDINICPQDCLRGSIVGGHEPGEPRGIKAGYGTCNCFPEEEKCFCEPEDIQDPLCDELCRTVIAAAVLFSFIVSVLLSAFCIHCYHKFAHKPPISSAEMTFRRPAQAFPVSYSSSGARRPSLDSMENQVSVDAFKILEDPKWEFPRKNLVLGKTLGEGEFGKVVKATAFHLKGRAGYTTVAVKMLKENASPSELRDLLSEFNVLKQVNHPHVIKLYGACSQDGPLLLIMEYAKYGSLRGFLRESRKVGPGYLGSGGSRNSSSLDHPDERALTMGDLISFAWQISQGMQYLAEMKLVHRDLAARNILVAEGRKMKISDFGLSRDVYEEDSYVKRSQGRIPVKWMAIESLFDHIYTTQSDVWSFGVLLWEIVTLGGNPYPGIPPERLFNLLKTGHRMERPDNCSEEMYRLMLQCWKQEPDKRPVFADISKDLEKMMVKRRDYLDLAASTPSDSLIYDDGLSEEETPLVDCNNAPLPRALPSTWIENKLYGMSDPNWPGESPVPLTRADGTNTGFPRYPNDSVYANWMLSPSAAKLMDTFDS
T5 sequence (P07949 29-1114 V804L): as the sequence (P07949 29-1114 V804M) above, with M776L counted along it
T4 sequence (P07949 29-1114 M918T): as the sequence (P07949 29-1114 V804M) above, with M776V, M890T counted along it

The term pIC50 denotes −log10 of the IC50, conventionally taken in molar units. Read a high pIC50 as a low IC50. With `CC1(NC(=O)c2ncccc2Cl)CCN(c2ccc(-c3cc(C#CC4(O)COC4)cn4ncc(C#N)c34)cn2)CC1` [Embodiment 97, 3-Chloro-N-(1-(5-(3-cyano-6-((3-hydroxyoxetan-3-yl)ethynyl)pyrazolo[1,5-a]pyridin-4-yl)pyridin-2-yl)-4-methylpiperidin-4-yl)picolinamide], the pIC50 on RET V804M was 8.96; against KIF5B-RET, 9.30; on CCDC6-RET, 8.76; against RET M918T it was 9.43; at RET V804L, 9.55.

A word on the solubility: it is how much of the substance goes into solution per volume. As for `C#C[C@@](C)(O)COc1cc(-c2ccc(N3CC4CC(C3)N4Cc3ccc(OC)nc3)nc2)c2c(C#N)cnn2c1` [crystal form I, 6-(((R)-2-hydroxy-2-methylbut-3-yn-1-yl)oxy)-4-(6-(6-((6-methoxypyridin-3-yl)methyl)-3,6-diazabicyclo[3.1.1]heptan-3-yl)pyridin-3-yl)pyrazolo[1,5-a]pyridine-3-carbonitrile], in data set [1] (RH80%, 25° C.), the hygroscopic weight gain result was “about 0.43%”. Also, the hygroscopicity result in data set [1] (RH80%, 25° C.) was “slightly hygroscopicity”. For the same molecule, in data set [1] (two cycles at 0-95% RH), the “XRPD pattern / crystal form after moisture absorption and desorption” value is recorded as “the crystal form has not transformed”. The “Increase of total impurities %” value in data set [2] (High humidity/92.5% RH), in data set [2] (setting [4]), in data set [2] (High temperature/60° C.) and in data set [2] (Light/5000 lx) was under 0.02% throughout. Besides, the “Maximum increase of single impurity %” value in data set [2] (High humidity/92.5% RH) was under 0.02%; in data set [2] (setting [4]), 0.11%; in data set [2] (High temperature/60° C.), 0.06%; in data set [2] (Light/5000 lx), 0.18%. Besides, the solubility at 4 h in data set [3] (FaSSGF (artificial simulated gastric fluid), fassgf or other biorelevant, FaSSGF, 37° C.) is over 2000 µg/mL; in data set [3] (FaSSIF (fasting artificial simulated intestinal fluid), FaSSIF, 37° C.), 1 µg/mL (≈ 1.87 µM); in data set [3] (FeSSIF (non-fasting artificial simulated intestinal fluid), FeSSIF, 37° C.), 90 µg/mL (≈ 168 µM); in data set [3] (USP buffer pH 1, simulated gastric fluid, pH 1, 37° C.), over 2000 µg/mL; in data set [3] (USP buffer pH 2, simulated gastric fluid, pH 2, 37° C.) it was over 2000 µg/mL; in data set [3] (USP buffer pH 3, aqueous buffer, pH 3, 37° C.), 710 µg/mL (≈ 1330 µM). The solubility at 4 h in data set [3] (USP buffer pH 4, aqueous buffer, pH 4, 37° C.) amounted to 370 µg/mL (≈ 691 µM); in data set [3] (USP buffer pH 5, aqueous buffer, pH 5, 37° C.) it was 20 µg/mL (≈ 37.3 µM); in data set [3] (USP buffer pH 6, aqueous buffer, pH 6, 37° C.) it was 1 µg/mL (≈ 1.87 µM).
